Assay results: patent publication US5739111A, “Modulating body/cranial hair growth with derivatives of the α-type melanocyte-stimulating hormone” (Societe L'Oreal S.A., priority 1995, dated 1998)
Where a SMILES comes first, the peptide text is derived from it.

Tested on: hair follicles
Test: lengthening and survival of hair follicles maintained in vitro
Type: cell-based
Parameters: Mean lengthening: unit not given here
Protocol: Viable in vitro hair follicles were prepared according to the technique described in French Patent Application No. 95-08465, filed July 12, 1995 and assigned to the assignee hereof.
From a scalp biopsy, a rather fine strip of scalp was isolated using a scalpel. The adipose tissue surrounding the follicles was removed with microforceps while avoiding damage to the hair bulb. The follicles were cut out with a scalpel under a microscope in order to separate them from their epidermal and dermal surroundings.
The follicles were then cultured in the wells of Costar-type 24-well plates, at the rate of one follicle per well. Each well contained 0.5 ml of Williams' medium E, to which had been added penicillin and Streptomycin to a final concentration of 50 IU/ml, glutamine to 2 mM, bovine insulin to 0.01 mg/ml and hydrocortisone to 0.04 mg/ml.
The follicles were then measured using a microscope equipped with a micrometric eyepiece.
After 24 hours, the follicles were again measured and those which had lengthened by less than 0.3 divisions of the micrometer, corresponding to 0.16 mm, were discarded.
The five (5) following culturing conditions were tested:
Condition A: Complete Williams' medium E, without peptide.
Condition B: Complete Williams' medium E+10 mM Ac-LPV-NH2.
Condition C: Complete Williams' medium E+1 mM Ac-LPV-N2.
Condition D: Complete Williams' medium E+0.1 mM Ac-LPV-NH2.

[1] = summary in words, versus medium without peptide

Compound: CC(=O)N[C@@H](CCCCN)C(=O)N1CCC[C@H]1C(=O)N[C@H](C(N)=O)C(C)C [Acetyl-Lys-Pro-Val-NH2] (Ac-Lys-Pro-Val-NH2)
- Mean lengthening (1 mM (Conditions C, E) in complete Williams' medium E, day 0): 0.00
- % Survival (1 mM (Conditions C, E), day 0): 100%
- % Survival (1 mM (Conditions C, E), day 1): 100%
- Mean lengthening (1 mM (Conditions C, E), day 1): 0.38
- % Survival (1 mM (Conditions C, E), day 4): 100%
- Mean lengthening (1 mM (Conditions C, E), day 4): 1.05
- % Survival (1 mM (Conditions C, E), day 5): 100%
- Mean lengthening (1 mM (Conditions C, E), day 5): 1.21
- % Survival (1 mM (Conditions C, E), day 6): 100%
- Mean lengthening (1 mM (Conditions C, E), day 6): 1.28
- % Survival (1 mM (Conditions C, E), day 7): 91%
- Mean lengthening (1 mM (Conditions C, E), day 7): 1.42
- % Survival (1 mM (Conditions C, E), day 8): 55%
- Mean lengthening (1 mM (Conditions C, E), day 8): 1.39
- % Survival (1 mM (Conditions C, E), day 11): 36%
- Mean lengthening (1 mM (Conditions C, E), day 11): 1.70
- Mean lengthening (Condition B, 10 mM in complete Williams' medium E, day 0): 0.00
- % Survival (Condition B, 10 mM, day 0): 100%
- % Survival (Condition B, 10 mM, day 1): 100%
- Mean lengthening (Condition B, 10 mM, day 1): 0.38
- % Survival (Condition B, 10 mM, day 4): 100%
- Mean lengthening (Condition B, 10 mM, day 4): 1.11
- % Survival (Condition B, 10 mM, day 5): 100%
- Mean lengthening (Condition B, 10 mM, day 5): 1.33
- % Survival (Condition B, 10 mM, day 6): 100%
- Mean lengthening (Condition B, 10 mM, day 6): 1.43
- % Survival (Condition B, 10 mM, day 7): 100%
- Mean lengthening (Condition B, 10 mM, day 7): 1.54
- % Survival (Condition B, 10 mM, day 8): 92%
- Mean lengthening (Condition B, 10 mM, day 8): 1.74
- % Survival (Condition B, 10 mM, day 11): 83%
- Mean lengthening (Condition B, 10 mM, day 11): 1.96
- % Survival (Condition B, 10 mM, day 12): 42%
- Mean lengthening (Condition B, 10 mM, day 12): 2.40
- Mean lengthening (Condition D, 0.1 mM in complete Williams' medium E, day 0): 0.00
- % Survival (Condition D, 0.1 mM, day 0): 100%
- % Survival (Condition D, 0.1 mM, day 1): 100%
- Mean lengthening (Condition D, 0.1 mM, day 1): 0.37
- % Survival (Condition D, 0.1 mM, day 4): 100%
- Mean lengthening (Condition D, 0.1 mM, day 4): 1.10
- % Survival (Condition D, 0.1 mM, day 5): 100%
- Mean lengthening (Condition D, 0.1 mM, day 5): 1.22
- % Survival (Condition D, 0.1 mM, day 6): 100%
- Mean lengthening (Condition D, 0.1 mM, day 6): 1.28
- % Survival (Condition D, 0.1 mM, day 7): 83%
- Mean lengthening (Condition D, 0.1 mM, day 7): 1.42
- % Survival (Condition D, 0.1 mM, day 8): 50%
- Mean lengthening (Condition D, 0.1 mM, day 8): 1.58
- % Survival (Condition D, 0.1 mM, day 11): 42%
- Mean lengthening (Condition D, 0.1 mM, day 11): 2.08
- % Survival (Condition D, 0.1 mM, day 12): 17%
- Mean lengthening (Condition D, 0.1 mM, day 12): 2.11
- effect on lengthening of the cultured hair follicles [1]: promoted the lengthening
- effect on survival time of the cultured hair follicles [1]: increased their survival time
